Experiments:
Test in all cases: relative viability (nuclei count vs DMSO), 5 days (fraction); higher = more cells survive
[1] = compound: O=C(CCCCCCC(=O)Nc1ccccc1)NO [Vorinostat] + CC(=O)c1c(C)c2cnc(Nc3ccc(N4CCNCC4)cn3)nc2n(C2CCCC2)c1=O [Palbociclib] (partner 0.5 µM)
Outline: (§1)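 Lung cancer cell lines were seeded in 1536-well plates and dosed by pin tool the next day, with either a single drug or a fixed anchor-drug dose combined with five library-drug doses (not always all listed) spaced in √10 steps. Five days later, one step fixed the cells and stained their nuclei (final 0.05% Triton X-100, 1% formaldehyde, 1 ug/ml Hoechst), and nuclei were counted on 4× images. Relative viability is the nuclei count in treated wells divided by the count in vehicle wells, and each value is the median of duplicate plates.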

[2] = compound: O=C(CCCCCCC(=O)Nc1ccccc1)NO [Vorinostat] + CC(C)C[C@H](NC(=O)[C@H](Cc1ccccc1)NC(=O)c1cnccn1)B(O)O [Bortezomib] (partner 0.002 µM)
Outline: as §1

[3] = compound: O=C(CCCCCCC(=O)Nc1ccccc1)NO [Vorinostat] + COc1cc2c(Oc3ccc(NC(=O)C4(C(=O)Nc5ccc(F)cc5)CC4)cc3F)ccnc2cc1OCCCN1CCOCC1 [Foretinib] (partner 0.25 µM)
Outline: as §1

[4] = compound: O=C(CCCCCCC(=O)Nc1ccccc1)NO [Vorinostat] + CS(=O)(=O)N1CCN(Cc2cc3nc(-c4cccc5[nH]ncc45)nc(N4CCOCC4)c3s2)CC1 [Pictilisib] (partner 1 µM)
Outline: as §1

[5] = compound: O=C(CCCCCCC(=O)Nc1ccccc1)NO [Vorinostat] + C[C@@H](Oc1cc(-c2cnn(C3CCNCC3)c2)cnc1N)c1c(Cl)ccc(F)c1Cl [Crizotinib] (partner 1 µM)
Outline: as §1

Cell Line: EMC-BAC-2
- relative viability ([1]; first compound 0.253 µM): 0.49
- relative viability ([1]; first compound 0.8 µM): 0.425
- relative viability ([1]; first compound 2.53 µM): 0.254
- relative viability ([1]; first compound 8 µM): 0.203
- relative viability ([2]; first compound 0.253 µM): 1.22
- relative viability ([2]; first compound 0.8 µM): 1.02
- relative viability ([2]; first compound 2.53 µM): 0.405
- relative viability ([2]; first compound 8 µM): 0.167
- relative viability ([3]; first compound 0.253 µM): 1.02
- relative viability ([3]; first compound 0.8 µM): 0.977
- relative viability ([3]; first compound 2.53 µM): 0.4
- relative viability ([3]; first compound 8 µM): 0.172
- relative viability ([4]; first compound 0.253 µM): 0.596
- relative viability ([4]; first compound 0.8 µM): 0.531
- relative viability ([4]; first compound 2.53 µM): 0.372
- relative viability ([4]; first compound 8 µM): 0.129
- relative viability ([5]; first compound 0.253 µM): 0.817
- relative viability ([5]; first compound 0.8 µM): 0.558
- relative viability ([5]; first compound 2.53 µM): 0.166
- relative viability ([5]; first compound 8 µM): 0.107

Cell Line: EPLC-272H
- relative viability ([1]; first compound 0.253 µM): 0.289
- relative viability ([1]; first compound 0.8 µM): 0.294
- relative viability ([1]; first compound 2.53 µM): 0.217
- relative viability ([1]; first compound 8 µM): 0.171
- relative viability ([2]; first compound 0.253 µM): 0.742
- relative viability ([2]; first compound 0.8 µM): 0.744
- relative viability ([2]; first compound 2.53 µM): 0.275
- relative viability ([2]; first compound 8 µM): 0.12
- relative viability ([3]; first compound 0.253 µM): 0.581
- relative viability ([3]; first compound 0.8 µM): 0.512
- relative viability ([3]; first compound 2.53 µM): 0.0722
- relative viability ([3]; first compound 8 µM): 0.133
- relative viability ([4]; first compound 0.253 µM): 0.309
- relative viability ([4]; first compound 0.8 µM): 0.227
- relative viability ([4]; first compound 2.53 µM): 0.212
- relative viability ([4]; first compound 8 µM): 0.145
- relative viability ([5]; first compound 0.253 µM): 0.875
- relative viability ([5]; first compound 0.8 µM): 0.774
- relative viability ([5]; first compound 2.53 µM): 0.346
- relative viability ([5]; first compound 8 µM): 0.178

Cell Line: H3255
- relative viability ([1]; first compound 0.253 µM): 0.349
- relative viability ([1]; first compound 0.8 µM): 0.337
- relative viability ([1]; first compound 2.53 µM): 0.303
- relative viability ([1]; first compound 8 µM): 0.232
- relative viability ([2]; first compound 0.253 µM): 0.778
- relative viability ([2]; first compound 0.8 µM): 0.622
- relative viability ([2]; first compound 2.53 µM): 0.456
- relative viability ([2]; first compound 8 µM): 0.154
- relative viability ([3]; first compound 0.253 µM): 0.859
- relative viability ([3]; first compound 0.8 µM): 0.868
- relative viability ([3]; first compound 2.53 µM): 0.812
- relative viability ([3]; first compound 8 µM): 0.223
- relative viability ([4]; first compound 0.253 µM): 0.599
- relative viability ([4]; first compound 0.8 µM): 0.574
- relative viability ([4]; first compound 2.53 µM): 0.318
- relative viability ([4]; first compound 8 µM): 0.183
- relative viability ([5]; first compound 0.253 µM): 1.02
- relative viability ([5]; first compound 0.8 µM): 0.817
- relative viability ([5]; first compound 2.53 µM): 0.411
- relative viability ([5]; first compound 8 µM): 0.225

Cell Line: HARA
- relative viability ([1]; first compound 0.253 µM): 0.32
- relative viability ([1]; first compound 0.8 µM): 0.295
- relative viability ([1]; first compound 2.53 µM): 0.184
- relative viability ([1]; first compound 8 µM): 0.133
- relative viability ([2]; first compound 0.253 µM): 1.1
- relative viability ([2]; first compound 0.8 µM): 0.928
- relative viability ([2]; first compound 2.53 µM): 0.149
- relative viability ([2]; first compound 8 µM): 0.0288
- relative viability ([3]; first compound 0.253 µM): 0.965
- relative viability ([3]; first compound 0.8 µM): 0.495
- relative viability ([3]; first compound 2.53 µM): 0.151
- relative viability ([3]; first compound 8 µM): 0.0596
- relative viability ([4]; first compound 0.253 µM): 0.483
- relative viability ([4]; first compound 0.8 µM): 0.447
- relative viability ([4]; first compound 2.53 µM): 0.132
- relative viability ([4]; first compound 8 µM): 0.102
- relative viability ([5]; first compound 0.253 µM): 1.15
- relative viability ([5]; first compound 0.8 µM): 0.932
- relative viability ([5]; first compound 2.53 µM): 0.136
- relative viability ([5]; first compound 8 µM): 0.0954

Cell Line: HCC-15
- relative viability ([1]; first compound 0.253 µM): 0.748
- relative viability ([1]; first compound 0.8 µM): 0.688
- relative viability ([1]; first compound 2.53 µM): 0.281
- relative viability ([1]; first compound 8 µM): 0.101
- relative viability ([2]; first compound 0.253 µM): 1.15
- relative viability ([2]; first compound 0.8 µM): 0.973
- relative viability ([2]; first compound 2.53 µM): 0.518
- relative viability ([2]; first compound 8 µM): 0.13
- relative viability ([3]; first compound 0.253 µM): 1.12
- relative viability ([3]; first compound 0.8 µM): 0.979
- relative viability ([3]; first compound 2.53 µM): 0.464
- relative viability ([3]; first compound 8 µM): 0.102
- relative viability ([4]; first compound 0.253 µM): 0.811
- relative viability ([4]; first compound 0.8 µM): 0.608
- relative viability ([4]; first compound 2.53 µM): 0.472
- relative viability ([4]; first compound 8 µM): 0.108
- relative viability ([5]; first compound 0.253 µM): 0.919
- relative viability ([5]; first compound 0.8 µM): 0.879
- relative viability ([5]; first compound 2.53 µM): 0.496
- relative viability ([5]; first compound 8 µM): 0.0884

Cell Line: HCC-44
- relative viability ([1]; first compound 0.253 µM): 0.989
- relative viability ([1]; first compound 0.8 µM): 0.969
- relative viability ([1]; first compound 2.53 µM): 0.812
- relative viability ([1]; first compound 8 µM): 0.301
- relative viability ([2]; first compound 0.253 µM): 0.886
- relative viability ([2]; first compound 0.8 µM): 0.883
- relative viability ([2]; first compound 2.53 µM): 0.514
- relative viability ([2]; first compound 8 µM): 0.109
- relative viability ([4]; first compound 0.253 µM): 0.603
- relative viability ([4]; first compound 0.8 µM): 0.411
- relative viability ([4]; first compound 2.53 µM): 0.308
- relative viability ([4]; first compound 8 µM): 0.0904
- relative viability ([5]; first compound 0.253 µM): 0.728
- relative viability ([5]; first compound 0.8 µM): 0.783
- relative viability ([5]; first compound 2.53 µM): 0.224
- relative viability ([5]; first compound 8 µM): 0.0957

Cell Line: HCC-78
- relative viability ([1]; first compound 0.253 µM): 0.467
- relative viability ([1]; first compound 0.8 µM): 0.518
- relative viability ([1]; first compound 2.53 µM): 0.438
- relative viability ([1]; first compound 8 µM): 0.344
- relative viability ([2]; first compound 0.253 µM): 0.495
- relative viability ([2]; first compound 0.8 µM): 0.265
- relative viability ([2]; first compound 2.53 µM): 0.119
- relative viability ([2]; first compound 8 µM): 0.126
- relative viability ([3]; first compound 0.253 µM): 0.683
- relative viability ([3]; first compound 0.8 µM): 0.448
- relative viability ([3]; first compound 2.53 µM): 0.221
- relative viability ([3]; first compound 8 µM): 0.221
- relative viability ([4]; first compound 0.253 µM): 0.25
- relative viability ([4]; first compound 0.8 µM): 0.128
- relative viability ([4]; first compound 2.53 µM): 0.117
- relative viability ([4]; first compound 8 µM): 0.134
- relative viability ([5]; first compound 0.253 µM): 0.319
- relative viability ([5]; first compound 0.8 µM): 0.229
- relative viability ([5]; first compound 2.53 µM): 0.117
- relative viability ([5]; first compound 8 µM): 0.137

Cell Line: HCC-366
- relative viability ([1]; first compound 0.253 µM): 0.345
- relative viability ([1]; first compound 0.8 µM): 0.182
- relative viability ([1]; first compound 2.53 µM): 0.0412
- relative viability ([1]; first compound 8 µM): 0.0283
- relative viability ([2]; first compound 0.253 µM): 1.09
- relative viability ([2]; first compound 0.8 µM): 0.872
- relative viability ([2]; first compound 2.53 µM): 0.0664
- relative viability ([2]; first compound 8 µM): 0.0198
- relative viability ([3]; first compound 0.253 µM): 1.03
- relative viability ([3]; first compound 0.8 µM): 0.333
- relative viability ([3]; first compound 2.53 µM): 0.0524
- relative viability ([3]; first compound 8 µM): 0.0624
- relative viability ([4]; first compound 0.253 µM): 0.132
- relative viability ([4]; first compound 0.8 µM): 0.191
- relative viability ([4]; first compound 2.53 µM): 0.0894
- relative viability ([4]; first compound 8 µM): 0.037
- relative viability ([5]; first compound 0.253 µM): 0.217
- relative viability ([5]; first compound 0.8 µM): 0.1
- relative viability ([5]; first compound 2.53 µM): 0.0143
- relative viability ([5]; first compound 8 µM): 0.0124

Source: the supplement of paper PMC10307832
